Measurements reported in article PMC9496553, “The Dual-Targeted Peptide Conjugated Probe for Depicting Residual Nasopharyngeal Carcinoma and Guiding Surgery” (Biosensors, 2022).
No end group written: not given here.

Assays:
Format in all cases: in vivo, BALB/c nude mice
[1] = tested on: 5-8F tumours; assay: Biodistribution and tumour selectivity by whole-body fluorescence imaging, subcutaneous tumour model; conditions: for maximum TBR (tumour-to-background ratio): i.v. 12 μM, tumour region vs ipsilateral auricle
Procedure: (§1) Animal experiments were performed in accordance with the approval of Animal Welfare and Ethics Committee of Jinan University (approval number: IACUC-20211210-03). Four-week-old BALB/c nude mice were purchased from the Beijing Vital River Laboratory Animal Technology Co., Ltd. (Beijing, China). Subcutaneous tumour models received a subcutaneous injection of 5-8F (5.0 × 10^6 in 200 μL PBS) in the lower right flank. Experiments were started 10–14 days after tumour implantation, when the tumour diameter was 6–8 mm. Tumour volumes were measured using a Vernier calliper and calculated using the formula for a hemiellipsoid (volume = 0.5236 × length × width^2), as this form best approximated the tumour shape. For orthotopic tumour models, mice were anaesthetised using isoflurane with a precision vaporiser at 1% and injected with 25 μL of 1.1 × 10^5 5-8F-fLuc cells into the nasopharynx using a 28-gauge needle, as previously reported. Mice were fed a specific pathogen-free unit, and animal surgery was performed in a sterile hood. Orthotopic tumours were visualised and tracked by bioluminescence imaging (BLI) using an IVIS® Spectrum In Vivo Imaging System (PerkinElmer, Waltham, MA, USA). Specifically, mice received an intraperitoneal injection of 3 mg/mL luciferin bioluminescent substrate (Perkin Elmer, Waltham, MA, USA) 4 min before imaging.
Mice with subcutaneous 5-8F tumours were randomly divided into three groups (n = 3 per group). The three groups received intravenous (i.v.) injection with 12 μM FY-35 (dual-target dye), 12 μM FL-35 (single-target dye), and equimolar quantities of free dye, respectively. Fluorescence images were acquired pre-, 2 h, 6 h, 10 h, and 24 h post-injection. The mice in each group were euthanised. The heart, lung, liver, pancreas, spleen, kidney, intestine, and tumour tissues were collected for ex vivo imaging. The MFI was analysed to determine organ biodistribution and tumour selectivity in the three groups. The TBR was calculated by drawing regions of interest within the tumour region and ipsilateral auricle of each mouse.

[2] = tested on: 5-8F tumours; assay: Minimal size of detectable subcutaneous tumours by fluorescence imaging; conditions: 12 μM, n = 8
Procedure: as §1, with “Mice were fed a specific pathogen-free unit, and animal surgery was performed in a sterile hood. Orthotopic tumours were visualised and tracked by bioluminescence imaging (BLI) using an IVIS® Spectrum In Vivo Imaging System (PerkinElmer, Waltham, MA, USA). Specifically, mice received an intraperitoneal injection of 3 mg/mL luciferin bioluminescent substrate (Perkin Elmer, Waltham, MA, USA) 4 min before imaging.” left out
(§2) To identify the minimal size of detectable tumours, subcutaneous tumours of different sizes (1–7 mm; n = 8) were injected with 12 μM FY-35, and imaged at 24 h post-injection to measure MFI in the tumour region. […] Serial sections were cut at a thickness of 10 μm for fluorescence imaging using an inverted microscope (Leica, Wetzlar, Germany), and 4 μm for haematoxylin–eosin (H&E) staining.

[3] = tested on: 5-8F-fLuc orthotopic tumours; assay: Fluorescence imaging of orthotopic nasopharyngeal tumours; conditions: orthotopic model, n = 5, i.v. 12 μM, imaged up to 48 h post-injection
Procedure: as §1, with “Mice were fed a specific pathogen-free unit, and animal surgery was performed in a sterile hood. Orthotopic tumours were visualised and tracked by bioluminescence imaging (BLI) using an IVIS® Spectrum In Vivo Imaging System (PerkinElmer, Waltham, MA, USA). Specifically, mice received an intraperitoneal injection of 3 mg/mL luciferin bioluminescent substrate (Perkin Elmer, Waltham, MA, USA) 4 min before imaging.” left out
as §2

Row | Substance | maximum TBR (tumour-to-background ratio) ([1]; subcutaneous 5-8F tumours) | contrast improved compared to single-targeted tracer (IR800-FL-35) ([1]; at 24 h post-injection) [fold] | maximum TBR, fold higher than that of IR800-FL-35 ([1]; subcutaneous 5-8F tumours) [fold] | tumour volume at which the MFI increased remarkably ([2]; 24 h post-injection) [mm^3] | minimum size of detectable tumours ([2]; imaged 24 h post-injection, subcutaneous tumours 1–7 mm) [mm] | retention of optical contrast in the tumour region [3] [h]
1 | IR800-FL-35: single-targeted peptide FL-35 labelled with IRDye 800CW (FAEKFKEAVKDYFAKFWDGSGSYTYSTPVWVPLWL; also: IRDye 800CW label, site not given here) | 5.99 |  |  |  |  | 
2 | IR800-FY-35: bispecific peptide FY-35 labelled with IRDye 800CW (FAEKFKEAVKDYFAKFWDGSGLTVSPWYLTVSPWY; also: IRDye 800CW label, site not given here) | 13.83 | 2.3 | 2.3 | 32 | 3.9 | 48
